Data from patent US8846653B2, “Delta-tocotrienol treatment and prevention of pancreatic cancer” (University of South Florida, priority 2006, dated 2014).

Experiments:
Assay type in all cases: cell-based, human
[1] = tested on: BXPC3 cells; assay: MTT assay of BXPC3 cultures, single 50 μM dose; design: MTT assay result, run 1 / MTT assay result, run 2 / MTT assay result, run 3 / MTT assay result, run 4 / MTT assay result, run 5 / MTT assay result, run 6 / MTT assay result, run 7 / MTT assay result, av (average) / MTT assay result, av-blank / MTT assay result, av: unit not given here; settings: BXPC3, 50 μM; for MTT assay result, av-blank: average minus blank; for MTT assay result, av (average) / MTT assay result, av: average of 7 runs
Outline: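 BXPC3 cells in 10% FBS medium at 37° C, 5% CO2, given a single 50 μM dose of tocotrienols, tocopherols, tocopherol succinate, geranylgeraniol, succinic acid or vehicle, alongside untreated control. Viability read by MTT at 48 or 120 hours.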

[2] = tested on: SW1990 pancreatic cancer cells; assay: MTS assay of SW1990 cultures, single 50 μM dose; settings: SW1990, 50 μM
Outline: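 SW1990 cells were grown in DMEM with 10% FBS at 37 °C, 5% CO2. They were given one 50 μM dose of a tocotrienol, tocopherol, tocopherol succinate, geranylgeraniol or succinic acid, in an olive-oil-extract vehicle. MTS viability was read at 24, 48 or 72 h and compared with vehicle-only cultures.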

[3] = tested on: MiaPaCa-2 cells; assay: MTS assay of MiaPaCa2 cultures, single 50 μM dose; settings: MiaPaCa2, 50 μM
Outline: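 MiaPaCa-2 pancreatic cancer cells were grown in complete DMEM with 10% fetal bovine serum, 1% penicillin-streptomycin and 1% L-glutamine, kept at 37° C. in a humidified 5% CO2 incubator. They received a single 50 μM dose of test agent or vehicle alongside an untreated control culture, and viability was assessed by MTS assay.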

Cc1c(C)c2c(c(C)c1O)CC[C@@](C)(CCC[C@H](C)CCC[C@H](C)CCCC(C)C)O2 [T alpha, alpha tocopherol]
rel amt (relative value set to the control) ([1]; 48 hours): 120
MTT assay result, av-blank ([1]; 48 hours): 0.274
MTT assay result, av (average) ([1]; 48 hours): 0.323
MTT assay result, run 1 ([1]; 48 hours): 0.333
MTT assay result, run 2 ([1]; 48 hours): 0.328
MTT assay result, run 3 ([1]; 48 hours): 0.352
MTT assay result, run 4 ([1]; 48 hours): 0.296
MTT assay result, run 5 ([1]; 48 hours): 0.3
MTT assay result, run 6 ([1]; 48 hours): 0.341
MTT assay result, run 7 ([1]; 48 hours): 0.312
rel amt (relative value set to the control) ([1]; 120 hours (5 days)): 106
MTT assay result, av-blank ([1]; 120 hours (5 days)): 0.611
MTT assay result, av ([1]; 120 hours (5 days)): 0.666
MTT assay result, run 1 ([1]; 120 hours (5 days)): 0.657
MTT assay result, run 2 ([1]; 120 hours (5 days)): 0.642
MTT assay result, run 3 ([1]; 120 hours (5 days)): 0.666
MTT assay result, run 4 ([1]; 120 hours (5 days)): 0.659
MTT assay result, run 5 ([1]; 120 hours (5 days)): 0.705
MTT assay result, run 6 ([1]; 120 hours (5 days)): 0.66
MTT assay result, run 7 ([1]; 120 hours (5 days)): 0.672
rel amnt (relative value set to the control) ([2]; 24 hours): 122
MTS assay result, run 1 ([2]; 24 hours): 0.188
MTS assay result, run 2 ([2]; 24 hours): 0.183
MTS assay result, run 3 ([2]; 24 hours): 0.189
MTS assay result, run 4 ([2]; 24 hours): 0.166
MTS assay result, run 5 ([2]; 24 hours): 0.183
MTS assay result, run 6 ([2]; 24 hours): 0.181
MTS assay result, run 7 ([2]; 24 hours): 0.186
MTS assay result, run 8 ([2]; 24 hours): 0.16
MTS assay result, run 9 ([2]; 24 hours): 0.180
rel amnt (relative value set to the control) ([2]; 48 hours): 107
MTS assay result, run 1 ([2]; 48 hours): 0.172
MTS assay result, run 2 ([2]; 48 hours): 0.17
MTS assay result, run 3 ([2]; 48 hours): 0.16
MTS assay result, run 4 ([2]; 48 hours): 0.154
MTS assay result, run 5 ([2]; 48 hours): 0.154
MTS assay result, run 6 ([2]; 48 hours): 0.167
MTS assay result, run 7 ([2]; 48 hours): 0.18
MTS assay result, run 8 ([2]; 48 hours): 0.146
MTS assay result, run 9 ([2]; 48 hours): 0.163
rel amnt (relative value set to the control) ([2]; 72 hours): 103
MTS assay result, run 1 ([2]; 72 hours): 0.523
MTS assay result, run 2 ([2]; 72 hours): 0.478
MTS assay result, run 3 ([2]; 72 hours): 0.46
MTS assay result, run 4 ([2]; 72 hours): 0.453
MTS assay result, run 5 ([2]; 72 hours): 0.443
MTS assay result, run 6 ([2]; 72 hours): 0.456
MTS assay result, run 7 ([2]; 72 hours): 0.38
MTS assay result, run 8 ([2]; 72 hours): 0.451
MTS assay result, run 9 ([2]; 72 hours): 0.456
rel amt (relative value set to the control) ([3]; 24 hours): 111
MTS assay result, run 1 ([3]; 24 hours): 0.249
MTS assay result, run 2 ([3]; 24 hours): 0.25
MTS assay result, run 3 ([3]; 24 hours): 0.253
MTS assay result, run 4 ([3]; 24 hours): 0.207
MTS assay result, run 5 ([3]; 24 hours): 0.253
MTS assay result, run 6 ([3]; 24 hours): 0.238
MTS assay result, run 7 ([3]; 24 hours): 0.27
MTS assay result, run 8 ([3]; 24 hours): 0.254
MTS assay result, run 9 ([3]; 24 hours): 0.247
rel amt (relative value set to the control) ([3]; 48 hours): 86
MTS assay result, run 1 ([3]; 48 hours): 0.308
MTS assay result, run 2 ([3]; 48 hours): 0.313
MTS assay result, run 3 ([3]; 48 hours): 0.342
MTS assay result, run 4 ([3]; 48 hours): 0.269
MTS assay result, run 5 ([3]; 48 hours): 0.352
MTS assay result, run 6 ([3]; 48 hours): 0.277
MTS assay result, run 7 ([3]; 48 hours): 0.305
MTS assay result, run 8 ([3]; 48 hours): 0.339
MTS assay result, run 9 ([3]; 48 hours): 0.313
rel amt (relative value set to the control) ([3]; 72 hours): 103
MTS assay result, run 1 ([3]; 72 hours): 0.523
MTS assay result, run 2 ([3]; 72 hours): 0.478
MTS assay result, run 3 ([3]; 72 hours): 0.464
MTS assay result, run 4 ([3]; 72 hours): 0.453
MTS assay result, run 5 ([3]; 72 hours): 0.443
MTS assay result, run 6 ([3]; 72 hours): 0.456
MTS assay result, run 7 ([3]; 72 hours): 0.383
MTS assay result, run 8 ([3]; 72 hours): 0.451
MTS assay result, run 9 ([3]; 72 hours): 0.456

Cc1c(O)cc2c(c1C)O[C@](C)(CCC[C@H](C)CCC[C@H](C)CCCC(C)C)CC2 [T gamma]
rel amt (relative value set to the control) ([1]; 48 hours): 115
MTT assay result, av-blank ([1]; 48 hours): 0.262
MTT assay result, av (average) ([1]; 48 hours): 0.311
MTT assay result, run 1 ([1]; 48 hours): 0.32
MTT assay result, run 2 ([1]; 48 hours): 0.356
MTT assay result, run 3 ([1]; 48 hours): 0.335
MTT assay result, run 4 ([1]; 48 hours): 0.304
MTT assay result, run 5 ([1]; 48 hours): 0.277
MTT assay result, run 6 ([1]; 48 hours): 0.28
MTT assay result, run 7 ([1]; 48 hours): 0.306
rel amt (relative value set to the control) ([1]; 120 hours (5 days)): 103
MTT assay result, av-blank ([1]; 120 hours (5 days)): 0.595
MTT assay result, av ([1]; 120 hours (5 days)): 0.650
MTT assay result, run 1 ([1]; 120 hours (5 days)): 0.628
MTT assay result, run 2 ([1]; 120 hours (5 days)): 0.66
MTT assay result, run 3 ([1]; 120 hours (5 days)): 0.653
MTT assay result, run 4 ([1]; 120 hours (5 days)): 0.649
MTT assay result, run 5 ([1]; 120 hours (5 days)): 0.682
MTT assay result, run 6 ([1]; 120 hours (5 days)): 0.615
MTT assay result, run 7 ([1]; 120 hours (5 days)): 0.661
rel amnt (relative value set to the control) ([2]; 24 hours): 116
MTS assay result, run 1 ([2]; 24 hours): 0.175
MTS assay result, run 2 ([2]; 24 hours): 0.165
MTS assay result, run 3 ([2]; 24 hours): 0.167
MTS assay result, run 4 ([2]; 24 hours): 0.154
MTS assay result, run 5 ([2]; 24 hours): 0.198
MTS assay result, run 6 ([2]; 24 hours): 0.168
MTS assay result, run 7 ([2]; 24 hours): 0.178
MTS assay result, run 8 ([2]; 24 hours): 0.16
MTS assay result, run 9 ([2]; 24 hours): 0.171
rel amnt (relative value set to the control) ([2]; 48 hours): 94
MTS assay result, run 1 ([2]; 48 hours): 0.131
MTS assay result, run 2 ([2]; 48 hours): 0.133
MTS assay result, run 3 ([2]; 48 hours): 0.14
MTS assay result, run 4 ([2]; 48 hours): 0.141
MTS assay result, run 5 ([2]; 48 hours): 0.142
MTS assay result, run 6 ([2]; 48 hours): 0.122
MTS assay result, run 7 ([2]; 48 hours): 0.16
MTS assay result, run 8 ([2]; 48 hours): 0.164
MTS assay result, run 9 ([2]; 48 hours): 0.142
rel amnt (relative value set to the control) ([2]; 72 hours): 108
MTS assay result, run 1 ([2]; 72 hours): 0.5
MTS assay result, run 2 ([2]; 72 hours): 0.497
MTS assay result, run 3 ([2]; 72 hours): 0.46
MTS assay result, run 4 ([2]; 72 hours): 0.505
MTS assay result, run 5 ([2]; 72 hours): 0.515
MTS assay result, run 6 ([2]; 72 hours): 0.469
MTS assay result, run 7 ([2]; 72 hours): 0.43
MTS assay result, run 8 ([2]; 72 hours): 0.451
MTS assay result, run 9 ([2]; 72 hours): 0.478
rel amt (relative value set to the control) ([3]; 24 hours): 121
MTS assay result, run 1 ([3]; 24 hours): 0.273
MTS assay result, run 2 ([3]; 24 hours): 0.261
MTS assay result, run 3 ([3]; 24 hours): 0.268
MTS assay result, run 4 ([3]; 24 hours): 0.219
MTS assay result, run 5 ([3]; 24 hours): 0.264
MTS assay result, run 6 ([3]; 24 hours): 0.31
MTS assay result, run 7 ([3]; 24 hours): 0.295
MTS assay result, run 8 ([3]; 24 hours): 0.263
MTS assay result, run 9 ([3]; 24 hours): 0.269
rel amt (relative value set to the control) ([3]; 48 hours): 81
MTS assay result, run 1 ([3]; 48 hours): 0.329
MTS assay result, run 2 ([3]; 48 hours): 0.265
MTS assay result, run 3 ([3]; 48 hours): 0.304
MTS assay result, run 4 ([3]; 48 hours): 0.25
MTS assay result, run 5 ([3]; 48 hours): 0.289
MTS assay result, run 6 ([3]; 48 hours): 0.341
MTS assay result, run 7 ([3]; 48 hours): 0.301
MTS assay result, run 8 ([3]; 48 hours): 0.279
MTS assay result, run 9 ([3]; 48 hours): 0.295
rel amt (relative value set to the control) ([3]; 72 hours): 108
MTS assay result, run 1 ([3]; 72 hours): 0.5
MTS assay result, run 2 ([3]; 72 hours): 0.497
MTS assay result, run 3 ([3]; 72 hours): 0.46
MTS assay result, run 4 ([3]; 72 hours): 0.505
MTS assay result, run 5 ([3]; 72 hours): 0.515
MTS assay result, run 6 ([3]; 72 hours): 0.469
MTS assay result, run 7 ([3]; 72 hours): 0.429
MTS assay result, run 8 ([3]; 72 hours): 0.451
MTS assay result, run 9 ([3]; 72 hours): 0.478
